The source of these data is US11712468B2, “CD70 combination therapy” (Argenx BV, priority 2018, dated 2023).

For one data set, the system named is NOMO-1 AML cells. The data set is described as follows: AML cell killing with NK cells, Annexin V viable cell count at 72 h (IC50 and Chou-Talalay synergy). Format: cell-based. To be noted: Homo sapiens. The procedure: (§1) Initially, cells from each AML cell line were treated with decitabine, cusatuzumab or venetoclax alone to determine the IC50 for each treatment. 10^5 AML cells were treated with a concentration range of cusatuzumab (0.1, 1.0 and 10 μg/ml), venetoclax (0.5 and 200 nM), decitabine (0.01-1 μM) or vehicle in the presence of CFSE-labelled NK cells derived from healthy individuals (ratio 1:1). The assay was performed in triplicate.
(§2) To determine synergy, a constant combination ratio experiment was carried out at equipotency ratio (IC501/IC502, or IC501/IC502/IC503) so that each drug contributed equally to cell killing. Combination drug dose responses were assessed in two technical replicates for every dose/dose combination as previously described (Riether et al., Sci Transl Med (2015) 7(298); 298ra119.
(§3) NOMO-1, MOLM-13, NB-4 or MV4-11 AML cell lines were treated with vehicle, decitabine, cusatuzumab or venetoclax alone, a double combination of venetoclax and decitabine, decitabine and cusatuzumab, or venetoclax and cusatuzumab, or a triple combination of decitabine, cusatuzumab and venetoclax. All combinations were tested at three high and three low concentrations (above and below the identified IC50s) and in a constant ratio. Cells were cultured in the presence of CFSE-labeled NK cells (ratio 1:1). Viable AML cell numbers were assessed 72 hours later by Annexin V staining, and the effect of drug treatment was calculated as the ratio of surviving cells to vehicle-treated cells.
(§4) The Combination Index (CI) was calculated and plotted against Fraction affected (Fa) using CompuSyn software. The resultant plot of the combination index (CI) against fraction affected (Fa) for all combinations is shown in FIG. 1, with the individual combinations shown in FIGS. 2A-2D.
(§5) Fa values of 0, 0.5, and 1 correspond to 0, 50, and 100% killed cells. A CI of <1, 1, >1 represents synergism, additivity, and antagonism, respectively. IC50s indicates Fa values reached for the combination of respective IC50 concentrations. The principles and advantages of the Fa-CI plot method of assessing synergism are provided in, for example, Chou T C, Cancer Research (2010) 70(2); 440-6 and Zhao et al. Front Biosci (Elite Ed). (2010) 2; 241-249 (each of which is incorporated herein by reference in its entirety).

Another data set relates to MOLM-13 AML cells. The data set is described as above. It counts as cell-based. To be noted: Homo sapiens. The procedure: as §1, §2, §3, §4, §5
In a further data set the test system is MV4-11 AML cells. The data set is described as above. It counts as cell-based. To be noted: Homo sapiens. As to the method:
as §1, §2, §3, §4, §5

A further data set relates to NB4 AML cells. The description is as above. Format: cell-based. As to the method: as §1, §2, §3, §4, §5
The subject of the next data set is CD70 expression. Nature of the data set: CD70 mRNA and protein expression in AML cells. Particulars: AML cells (MOLM-13, NOMO-1) in the presence of venetoclax. It counts as cell-based. As to the method: FIG. 9: CD70 mRNA expression (as percentage of housekeeping gene) following treatment with vehicle (Veh) or venetoclax (Ven) for 24 or 48 hrs.
FIG. 10: CD70 protein and mRNA expression by MOLM-13 and NOMO-1 cells in the presence (gray bars) and absence (black bars) of venetoclax. Significance was determined using a Student's t-test. MFI=mean fluorescence intensity. *** P<0.001.
The effect of venetoclax on expression of CD70 at both the mRNA and protein level was assessed.

For data set [1] the following is noted: cited from earlier work.
Data set [2] concerns CD70-expressing tumour cells. Particulars: Silence et al. (2014); cited from earlier work.
For another data set, the system named is CD27 signalling. To be noted: cited from earlier work.
Another data set concerns the target T1, CD70 (Homo sapiens, UniProt P32970).
T1 sequence (P32970 1-193): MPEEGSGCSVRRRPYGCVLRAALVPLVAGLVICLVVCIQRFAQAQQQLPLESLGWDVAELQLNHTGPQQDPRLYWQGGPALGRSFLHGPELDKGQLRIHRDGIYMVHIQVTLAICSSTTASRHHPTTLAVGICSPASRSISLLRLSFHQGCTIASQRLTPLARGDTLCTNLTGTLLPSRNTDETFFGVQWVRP
To be noted: Silence et al. (2014); cited from earlier work.

Like-named read-outs stand apart in the source and are kept apart here.

Turning to `Nc1ncn([C@H]2C[C@H](O)[C@@H](CO)O2)c(=O)n1` [decitabine], the concentration for half-maximal inhibition (IC50) (usually the concentration needed to halve the response being measured) with NOMO-1 AML cells (NOMO-1) turned out to be 0.001 nM; in the data set with MOLM-13 AML cells (MOLM-13), 0.01 nM; in the data set on MV4-11 AML cells (MV4-11), 2.36 nM; in the data set on NB4 AML cells it was 4.8 nM.
In the case of `CC1(C)CCC(CN2CCN(c3ccc(C(=O)NS(=O)(=O)c4ccc(NCC5CCOCC5)c([N+](=O)[O-])c4)c(Oc4cnc5[nH]ccc5c4)c3)CC2)=C(c2ccc(Cl)cc2)C1` [venetoclax, 4-(4-{[2-(4-chlorophenyl)-4,4dimethylcyclohex-1-en-1-yl]methyl}piperazin-1-yl)-N-({3-nitro-4-[(tetrahydro-2H-pyran-4ylmethyl)amino]phenyl}sulfonyl)-2-(1H-pyrrolo[2,3-b]pyridin-5-yloxy)benzamide], the “CD70 expression (mRNA and protein)” value with CD70 expression is recorded as “up-regulated”. In addition, the IC50 is 3.4 nM with NOMO-1 AML cells (NOMO-1, monotherapy, NK cells ratio 1:1, read-out: IC50); 0.42 nM in the data set on MOLM-13 AML cells (MOLM-13, monotherapy, NK cells ratio 1:1, read-out: IC50); 5 nM in the data set with MV4-11 AML cells (MV4-11, monotherapy, NK cells ratio 1:1, read-out: IC50); 17.3 nM with NB4 AML cells (NB4, monotherapy, NK cells ratio 1:1, read-out: IC50). Besides, the Aqueous solubility result in [1] is “very low aqueous solubility”.

B1: cusatuzumab: IgG1 anti-CD70 antibody, ADCC-enhanced humanized monoclonal; VH SEQ ID NO: 4, VL SEQ ID NO: 8 (antibody, V domains shown)
VH: EVQLVESGGGLVQPGGSLRLSCAASGFTFSVYYMNWVRQAPGKGLEWVSDINNEGGTTYYADSVKGRFTISRDNSKNSLYLQMNSLRAEDTAVYYCARDAGYSNHVPIFDSWGQGTLVTVSS
VL: QAVVTQEPSLTVSPGGTVTLTCGLKSGSVTSDNFPTWYQQTPGQAPRLLIYNTNTRHSGVPDRFSGSILGNKAALTITGAQADDEAEYFCALFISNPSVEFGGGTQLTVLG
Consider B1, for which the “Lysis of CD70-expressing tumour cells via ADCC and CDC” value in data set [2] is on record as “lyse CD70-expressing tumour cells”. In the data set with CD27 signalling, the “CD70-induced CD27 signalling” value was “inhibit CD70-induced CD27 signalling”. Besides, the “Interaction of CD70 with CD27” value with CD70 is “inhibit the interaction of CD70 with its receptor CD27”.
